Test results reported in the supplement of paper PMC10307832.

Assays:
Assay in all cases: relative viability (nuclei count vs DMSO), 5 days (fraction); higher = more cells survive
Carboplatin + Decitabine = compound: C1CC(C1)(C(=O)O)C(=O)O.[NH2-].[NH2-].[Pt+2] [Carboplatin] + Nc1ncn([C@H]2C[C@H](O)[C@@H](CO)O2)c(=O)n1 [Decitabine] (partner 2 µM)
Procedure, shortened: (§1)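 A single step with final 0.05% Triton X-100, 1% formaldehyde and 1 ug/ml Hoechst fixed the cells and stained nuclei 5 days after treatment. Lung cancer cell lines in 1536-well plates had been treated by pin tool the day after seeding with one drug alone or a fixed anchor-drug dose plus five library-drug doses (not always all listed) in √10 steps, and nuclei were counted on 4× images. Relative viability is the ratio of nuclei in treated wells to nuclei in vehicle wells, taken as the median of duplicate plates.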

Carboplatin + Linsitinib = compound: C1CC(C1)(C(=O)O)C(=O)O.[NH2-].[NH2-].[Pt+2] [Carboplatin] + C[C@]1(O)C[C@@H](c2nc(-c3ccc4ccc(-c5ccccc5)nc4c3)c3c(N)nccn32)C1 [Linsitinib] (partner 1 µM)
Procedure, shortened: as §1

MLN4924 + Bortezomib = compound: NS(=O)(=O)OC[C@@H]1C[C@@H](n2ccc3c(N[C@H]4CCc5ccccc54)ncnc32)C[C@@H]1O [MLN4924] + CC(C)C[C@H](NC(=O)[C@H](Cc1ccccc1)NC(=O)c1cnccn1)B(O)O [Bortezomib] (partner 0.002 µM)
Procedure, shortened: as §1

Carboplatin + Crizotinib = compound: C1CC(C1)(C(=O)O)C(=O)O.[NH2-].[NH2-].[Pt+2] [Carboplatin] + C[C@@H](Oc1cc(-c2cnn(C3CCNCC3)c2)cnc1N)c1c(Cl)ccc(F)c1Cl [Crizotinib] (partner 1 µM)
Procedure, shortened: as §1

Cell Line | relative viability (Carboplatin + Decitabine; first compound 0.08 µM) | relative viability (Carboplatin + Decitabine; first compound 0.253 µM) | relative viability (Carboplatin + Decitabine; first compound 0.8 µM) | relative viability (Carboplatin + Decitabine; first compound 2.53 µM) | relative viability (Carboplatin + Decitabine; first compound 8 µM) | relative viability (Carboplatin + Linsitinib; first compound 0.08 µM) | relative viability (Carboplatin + Linsitinib; first compound 0.253 µM) | relative viability (Carboplatin + Linsitinib; first compound 0.8 µM) | relative viability (Carboplatin + Linsitinib; first compound 2.53 µM) | relative viability (Carboplatin + Linsitinib; first compound 8 µM) | relative viability (MLN4924 + Bortezomib; first compound 0.04 µM) | relative viability (MLN4924 + Bortezomib; first compound 0.1265 µM) | relative viability (MLN4924 + Bortezomib; first compound 0.4 µM) | relative viability (MLN4924 + Bortezomib; first compound 1.265 µM) | relative viability (MLN4924 + Bortezomib; first compound 4 µM) | relative viability (Carboplatin + Crizotinib; first compound 0.08 µM) | relative viability (Carboplatin + Crizotinib; first compound 0.253 µM) | relative viability (Carboplatin + Crizotinib; first compound 0.8 µM) | relative viability (Carboplatin + Crizotinib; first compound 2.53 µM) | relative viability (Carboplatin + Crizotinib; first compound 8 µM)
HARA | 0.681 | 0.439 | 0.549 | 0.448 | 0.469 | 0.94 | 0.985 | 0.703 | 0.853 | 0.904 | 0.918 | 0.516 | 0.218 | 0.101 | 0.0858 | 1.01 | 1.06 | 0.934 | 0.824 | 0.954
HCC-15 | 0.657 | 0.627 | 0.588 | 0.587 | 0.452 | 0.9 | 0.892 | 0.888 | 0.812 | 0.7 | 0.685 | 0.53 | 0.234 | 0.102 | 0.0928 | 0.914 | 0.875 | 0.775 | 0.688 | 0.643
HCC-44 | 0.968 | 0.915 | 0.949 | 0.923 | 0.863 | 0.668 | 0.685 | 0.606 | 0.478 | 0.543 | 0.774 | 0.642 | 0.281 | 0.208 | 0.19 | 0.752 | 0.822 | 0.742 | 0.751 | 0.668
IA-LM |  |  |  |  |  | 0.617 | 0.766 | 0.632 | 0.582 | 0.461 | 0.381 | 0.202 | 0.0828 | 0.0567 | 0.0708 | 0.772 | 0.818 | 0.767 | 0.694 | 0.486
LK-2 | 0.287 | 0.33 | 0.279 | 0.289 | 0.335 | 0.634 | 0.765 | 0.458 | 0.428 | 0.726 |  |  |  |  |  | 0.196 | 0.224 | 0.242 | 0.233 | 0.228
NCI-H358 | 0.213 | 0.222 | 0.201 | 0.201 | 0.186 | 0.826 | 0.806 | 0.796 | 0.772 | 0.751 |  |  |  |  |  | 0.596 | 0.744 | 0.629 | 0.588 | 0.525
NCI-H522 | 0.646 | 0.685 | 0.614 | 0.655 | 0.644 |  |  |  |  |  |  |  |  |  |  |  |  |  |  | 
NCI-H1299 |  |  |  |  |  | 1.02 | 0.993 | 0.953 | 0.965 | 0.956 | 1.01 | 0.803 | 0.402 | 0.269 | 0.225 | 0.932 | 0.91 | 0.88 | 0.885 | 0.835
NCI-H1395 | 0.797 | 0.747 | 0.63 | 0.584 | 0.516 | 1.02 | 1.05 | 0.82 | 0.751 | 0.576 |  |  |  |  |  |  |  |  |  | 
NCI-H1563 |  |  |  |  |  | 1.32 | 1.13 | 1.22 | 1.26 | 1.04 | 1.35 | 1.03 | 0.617 | 0.474 | 0.59 | 0.975 | 0.901 | 0.834 | 0.853 | 0.854
NCI-H1648 | 0.542 | 0.475 | 0.542 | 0.435 | 0.46 |  |  |  |  |  |  |  |  |  |  |  |  |  |  | 
NCI-H1650 | 0.426 | 0.498 | 0.425 | 0.365 | 0.308 |  |  |  |  |  | 0.226 | 0.194 | 0.172 | 0.182 | 0.177 | 1.2 | 0.968 | 0.907 | 0.824 | 0.533
NCI-H1703 |  |  |  |  |  | 1.84 | 1.04 | 0.829 | 1.32 | 0.813 | 0.117 | 0.0992 | 0.138 | 0.111 | 0.123 | 0.835 | 0.574 | 0.65 | 0.971 | 0.636
NCI-H1793 | 0.464 | 0.538 | 0.503 | 0.452 | 0.357 | 1.04 | 1.1 | 0.675 | 0.848 | 0.839 |  |  |  |  |  |  |  |  |  | 
NCI-H1944 | 0.456 | 0.456 | 0.437 | 0.417 | 0.363 | 1.24 | 1.09 | 1.16 | 1.29 | 0.898 |  |  |  |  |  | 1.05 | 1.17 | 1 | 0.916 | 0.788
NCI-H2170 | 0.507 | 0.476 | 0.465 | 0.428 | 0.343 |  |  |  |  |  |  |  |  |  |  | 1.13 | 1.18 | 1.21 | 1.13 | 0.971
NCI-H2228 |  |  |  |  |  | 0.601 | 1.08 | 0.719 | 0.653 | 0.641 |  | 1.03 | 0.309 | 0.121 | 0.166 | 0.469 | 0.517 | 0.41 | 0.593 | 0.428
NCI-H2342 | 0.675 | 0.729 | 0.661 | 0.721 | 0.594 |  |  |  |  |  |  |  |  |  |  |  |  |  |  | 
SK-MES-1 | 0.419 | 0.415 | 0.345 | 0.341 | 0.341 | 1.11 | 1.05 | 1.04 | 1.01 | 0.936 |  |  |  |  |  | 0.958 | 1.02 | 1.01 | 0.914 | 0.909
SW 900 | 0.431 | 0.361 | 0.42 | 0.395 | 0.377 |  |  |  |  |  |  |  |  |  |  |  |  |  |  | 
